Measurements: patent US4661630A, “Carboxylic acid amides and their derivatives” (Eisai Co., Ltd., priority 1982, dated 1987)

How the values were obtained:
[1] = test system: maximal electroshock seizures in mice; assay: Anti-electroshock convulsion activity (maximal electroshock seizures, method of Goodman et al.); format: in vivo; conditions: 2 hours after oral administration, n = 8, 25 mA, 0.25 sec.
Protocol: The effects of the representative compounds of the present invention on maximal electroshock seizures in mice were determined by the method of Goodman et al. [Goodman L. S., Singh Grewal M., Brown W. C. and Swinyard E. A., J. Pharmacol, Exp. Ther., 108, 168-176 (1953)]. At 2 hours after oral administration of test compounds, current (25 mA, 0.25 sec.) was delivered to animals with an electroshock device (made by Unique Medical).

[2] = test system: metrazol-induced convulsive death; assay: Anti-metrazol activity (metrazol-induced convulsive death); format: in vivo; conditions: oral doses of 20 to 80 mg/kg, male STD-ddY mice
Description: (a) Anti-metrazol activity of the compounds of the present invention was examined in male STD-ddY mice.

[3] = Acute toxicity (oral LD50); conditions: mouse, in vivo, mice
Description: (c) Acute toxicity of the compounds of the present invention was relatively low.

[4] = test system: mortality induced by potassium cyanide; assay: Anti-hypoxic activity (mortality induced by potassium cyanide); format: in vivo; conditions: 10 to 20 mg/kg, p.o., male STD-ddY mice

## O=C(Nc1cc(C(F)(F)F)cc(C(F)(F)F)c1)[C@H]1CCCC[C@H]1C(=O)O (relative stereo) [Compound A, cis-2-[(3,5-bistrifluoromethyl)-phenyl-aminocarbonyl]-cyclohexane carboxylic acid]
[1]; 10 mg/kg p.o.
  Inhibition (%) of tonic extension: 25%
[1]; 20 mg/kg p.o.
  Inhibition (%) of tonic extension: 50%
[1]; 40 mg/kg p.o.
  Inhibition (%) of tonic extension: 100%
[1]; 80 mg/kg p.o.
  Inhibition (%) of tonic extension: 100%
[1]; 320 mg/kg p.o.
  Inhibition (%) of tonic extension: 100%
[2]
  antagonism against metrazol-induced convulsive death: dose-dependent antagonism
[3]
  LD50: 1000 to 2000 mg/kg
[4]
  anti-hypoxic activity (antagonism against mortality induced by potassium cyanide): potent anti-hypoxic activity

## O=C(O)[C@@H]1CCCC[C@H]1C(=O)Nc1cc(C(F)(F)F)cc(C(F)(F)F)c1 (relative stereo) [Compound B, trans-2-[(3,5-bistrifluoromethyl)-phenyl-aminocarbonyl]-cyclohexane carboxylic acid]
[1]; 80 mg/kg p.o.
  Inhibition (%) of tonic extension: 0%
[1]; 320 mg/kg p.o.
  Inhibition (%) of tonic extension: 100%

## O=C(Nc1cc(C(F)(F)F)cc(C(F)(F)F)c1)[C@H]1CC=CC[C@H]1C(=O)O (relative stereo) [Compound C, cis-6-[(3,5-bistrifluoromethyl-phenyl)-aminocarbonyl]-3-cyclohexene carboxylic acid]
[1]; 10 mg/kg p.o.
  Inhibition (%) of tonic extension: 12.5%
[1]; 20 mg/kg p.o.
  Inhibition (%) of tonic extension: 100%
[1]; 40 mg/kg p.o.
  Inhibition (%) of tonic extension: 100%
[1]; 80 mg/kg p.o.
  Inhibition (%) of tonic extension: 100%
[1]; 320 mg/kg p.o.
  Inhibition (%) of tonic extension: 100%
[2]
  antagonism against metrazol-induced convulsive death: dose-dependent antagonism
[3]
  LD50: 1000 to 2000 mg/kg
[4]
  anti-hypoxic activity (antagonism against mortality induced by potassium cyanide): potent anti-hypoxic activity

## O=C(Nc1cc(C(F)(F)F)cc(C(F)(F)F)c1)[C@@H]1[C@@H]2CC[C@@H](C2)[C@@H]1C(=O)O (relative stereo) [Compound E, cis-endo-3-[(3,5-bistrifluoromethyl-phenyl)-aminocarbonyl]-bicyclo-(2,2,1)-heptane-2-carboxylic acid]
[1]; 80 mg/kg p.o.
  Inhibition (%) of tonic extension: 0%
[1]; 320 mg/kg p.o.
  Inhibition (%) of tonic extension: 100%

## CC1CC[C@H](C(=O)O)[C@H](C(=O)Nc2cc(C(F)(F)F)cc(C(F)(F)F)c2)C1 (relative stereo) [Compound F, cis-2-[(3,5-bistrifluoromethyl-phenyl)-aminocarbonyl]-4(5)-methyl-cyclohexane carboxylic acid]
[1]; 40 mg/kg p.o.
  Inhibition (%) of tonic extension: 50%
[1]; 80 mg/kg p.o.
  Inhibition (%) of tonic extension: 100%
[1]; 320 mg/kg p.o.
  Inhibition (%) of tonic extension: 100%

## O=C(O)C1=C(C(=O)Nc2cc(C(F)(F)F)cc(C(F)(F)F)c2)CCCC1 [Compound D, 2-[(3,5-bistrifluoromethyl-phenyl)-aminocarbonyl]-1-cyclohexenecarboxylic acid]
[1]; 80 mg/kg p.o.
  Inhibition (%) of tonic extension: 0%
[1]; 320 mg/kg p.o.
  Inhibition (%) of tonic extension: 100%

## O=C1C2CCCCC2C(=O)N1c1cc(C(F)(F)F)cc(C(F)(F)F)c1 (stereo not drawn) [Compound G, N-(3,5-bistrifluoromethylphenyl)-cyclohexane-1,2-dicarboximide]
[1]; 40 mg/kg p.o.
  Inhibition (%) of tonic extension: 25%
[1]; 80 mg/kg p.o.
  Inhibition (%) of tonic extension: 100%
[1]; 320 mg/kg p.o.
  Inhibition (%) of tonic extension: 100%

## O=C1C2CC=CCC2C(=O)N1c1cc(C(F)(F)F)cc(C(F)(F)F)c1 (stereo not drawn) [Compound H, N-(3,5-bistrifluoromethylphenyl)-4-cyclohexene-1,2-dicarboximide]
[1]; 80 mg/kg p.o.
  Inhibition (%) of tonic extension: 50%
[1]; 320 mg/kg p.o.
  Inhibition (%) of tonic extension: 87.5%
